Measured values published in patent publication US5843889A, “Glycopeptide antibiotic derivatives” (Eli Lilly and Company, priority 1997, dated 1998).
Values after ≈ are worked out from the molar mass of the structure shown.

How the values were obtained:
Assay type in all cases: cell-based
[1] = test system: Staphylococcus aureus S13E
Experimental: (§1) The MIC's were determined using a standard broth micro-dilution assay.

[2] = test system: Staphylococcus aureus SA1199B
Experimental: as §1

Entercoccus faecalis 276 = assay: MIC, standard broth micro-dilution assay
Experimental: (§2) The formula I compounds have in vitro and in vivo activity against Gram-positive pathogenic bacteria. The MIC's were determined using a standard broth micro-dilution assay.

[3] = test system: Entercoccus faecalis 2041; assay: MIC, standard broth micro-dilution assay
Experimental: as §2

[4] = test system: Entercoccus gallinarum 245; assay: MIC, standard broth micro-dilution assay
Experimental: as §2

[5] = test system: Staphylococcus haemolyticus 415; assay: MIC, standard broth micro-dilution assay
Experimental: as §1

[6] = test system: Staphylococcus haemolyticus 105; assay: MIC, standard broth micro-dilution assay
Experimental: as §1

Escherichia coli EC14 = assay: MIC, standard broth micro-dilution assay
Experimental: as §1

[7] = test system: Staphylococcus epidermidis 270; assay: MIC, standard broth micro-dilution assay
Experimental: as §1

[8] = test system: Staphylococcus aureus 446; assay: MIC, standard broth micro-dilution assay
Experimental: as §1

[9] = test system: Staphylococcus aureus X778; assay: MIC, standard broth micro-dilution assay
Experimental: as §1

[10] = test system: Staphylococcus aureus SA1199; assay: MIC, standard broth micro-dilution assay
Experimental: as §1

[11] = test system: Staphylococcus aureus X400; assay: MIC, standard broth micro-dilution assay
Experimental: as §1

[12] = test system: Staphylococcus aureus 447; assay: MIC, standard broth micro-dilution assay
Experimental: as §1

Entercoccus faecium 180 = assay: MIC, standard broth micro-dilution assay
Experimental: as §1

[13] = test system: Staphylococcus aureus 489; assay: MIC, standard broth micro-dilution assay
Experimental: as §1

[14] = test system: Haemophilus influenzae RD; assay: MIC, standard broth micro-dilution assay
Experimental: as §1

[15] = test system: Entercoccus faecium 180-1; assay: MIC, standard broth micro-dilution assay
Experimental: as §1

[16] = test system: Staphylococcus aureus SA1199A; assay: MIC, standard broth micro-dilution assay
Experimental: as §1

[17] = test system: Staphylococcus aureus 491; assay: MIC, standard broth micro-dilution assay
Experimental: as §1

[18] = test system: Streptococcus pneumoniae P1; assay: MIC, standard broth micro-dilution assay
Experimental: as §1

Leuconostoc lactis = assay: MIC, agar dilution on brain-heart infusion agar; details: Leuconostoc lactis (mean of 2)
Pedicoccus acidilacti = assay: MIC, agar dilution on brain-heart infusion agar; details: Pedioccccus acidilacti (mean of 10)
Lactobacillus confusus = assay: MIC, agar dilution on brain-heart infusion agar
[19] = test system: Leuconostoc mesenteroides; assay: MIC, agar dilution on brain-heart infusion agar; details: Leuconostoc mesenteroides (mean of 4)
Pediococcus pentosaceus = assay: MIC, agar dilution on brain-heart infusion agar; details: Pediococcus pentosaceus (mean of 2)

Structure (SMILES)	MIC [1] [µg/mL]	MIC [2] [µg/mL]	MIC (Entercoccus faecalis 276) [µg/mL]	MIC [3] [µg/mL]	MIC [4] [µg/mL]	MIC [5] [µg/mL]	MIC [6] [µg/mL]	MIC (Escherichia coli EC14) [µg/mL]	MIC [7] [µg/mL]	MIC [8] [µg/mL]	MIC [9] [µg/mL]	MIC [10] [µg/mL]	MIC [11] [µg/mL]	MIC [12] [µg/mL]	MIC (Entercoccus faecium 180) [µg/mL]	MIC [13] [µg/mL]	MIC [14] [µg/mL]	MIC [15] [µg/mL]	MIC [16] [µg/mL]	MIC [17] [µg/mL]	also measured
CNC(CC(C)C)C(=O)NC1C(=O)NC(CC(N)=O)C(=O)NC2C(=O)NC3C(=O)NC(C(=O)NC(C(=O)O)c4cc(O)cc(O)c4-c4cc3ccc4O)C(OC3CC(C)(N)C(O)C(C)O3)c3ccc(c(Cl)c3)Oc3cc2cc(c3OC2OC(CO)C(O)C(O)C2OC2CC(C)(NCc3c(O)ccc4ccccc34)C(O)C(C)O2)Oc2ccc(cc2Cl)C1O (stereo not shown) [Compound 44]	0.25 (≈ 0.143 µM)	0.25 (≈ 0.143 µM)	0.125 (≈ 0.0715 µM)	≤ 0.06	0.5 (≈ 0.286 µM)	4 (≈ 2.29 µM)	2 (≈ 1.14 µM)	> 64	0.5 (≈ 0.286 µM)	0.25 (≈ 0.143 µM)	≤ 0.06	0.25 (≈ 0.143 µM)	≤ 0.06	1 (≈ 0.572 µM)	8 (≈ 4.57 µM)	≤ 0.06	> 64	≤ 0.06	≤ 0.06	–	–
CNC(CC(C)C)C(=O)NC1C(=O)NC(CC(N)=O)C(=O)NC2C(=O)NC3C(=O)NC(C(=O)NC(C(=O)O)c4cc(O)cc(O)c4-c4cc3ccc4O)C(OC3CC(C)(N)C(O)C(C)O3)c3ccc(c(Cl)c3)Oc3cc2cc(c3OC2OC(CO)C(O)C(O)C2OC2CC(C)(NCc3cc(-c4ccccc4)nc4ccc(OC)cc34)C(O)C(C)O2)Oc2ccc(cc2Cl)C1O (stereo not shown) [Compound 45, 4-[2-phenyl-6-methoxy]quinoylmethyl]	0.5 (≈ 0.272 µM)	1 (≈ 0.544 µM)	0.25 (≈ 0.136 µM)	0.125 (≈ 0.0679 µM)	0.5 (≈ 0.272 µM)	8 (≈ 4.35 µM)	16 (≈ 8.7 µM)	> 64	8 (≈ 4.35 µM)	1 (≈ 0.544 µM)	0.25 (≈ 0.136 µM)	2 (≈ 1.09 µM)	0.25 (≈ 0.136 µM)	16 (≈ 8.7 µM)	1 (≈ 0.544 µM)	0.5 (≈ 0.272 µM)	> 64	≤ 0.06	≤ 0.06	1 (≈ 0.544 µM)	MIC [18]: ≤ 0.06 µg/mL
CNC(CC(C)C)C(=O)NC1C(=O)NC(CC(N)=O)C(=O)NC2C(=O)NC3C(=O)NC(C(=O)NC(C(=O)O)c4cc(O)cc(O)c4-c4cc3ccc4O)C(OC3CC(C)(N)C(O)C(C)O3)c3ccc(c(Cl)c3)Oc3cc2cc(c3OC2OC(CO)C(O)C(O)C2OC2CC(C)(NCc3ccc(C(c4ccccc4)c4ccccc4)cc3)C(O)C(C)O2)Oc2ccc(cc2Cl)C1O (stereo not shown) [Compound 46, 4-diphenylmethylbenzyl]	2 (≈ 1.08 µM)	2 (≈ 1.08 µM)	0.5 (≈ 0.27 µM)	1 (≈ 0.541 µM)	0.25 (≈ 0.135 µM)	2 (≈ 1.08 µM)	2 (≈ 1.08 µM)	> 64	2 (≈ 1.08 µM)	1 (≈ 0.541 µM)	2 (≈ 1.08 µM)	2 (≈ 1.08 µM)	2 (≈ 1.08 µM)	2 (≈ 1.08 µM)	0.5 (≈ 0.27 µM)	1 (≈ 0.541 µM)	> 64	≤ 0.06	0.5 (≈ 0.27 µM)	2 (≈ 1.08 µM)	MIC [18]: ≤ 0.06 µg/mL
CNC(CC(C)C)C(=O)NC1C(=O)NC(CC(N)=O)C(=O)NC2C(=O)NC3C(=O)NC(C(=O)NC(C(=O)O)c4cc(O)cc(O)c4-c4cc3ccc4O)C(OC3CC(C)(N)C(O)C(C)O3)c3ccc(c(Cl)c3)Oc3cc2cc(c3OC2OC(CO)C(O)C(O)C2OC2CC(C)(NCC3CC=CCC3)C(O)C(C)O2)Oc2ccc(cc2Cl)C1O (stereo not shown) [Compound 47, 3,4 cyclohexenylmethyl]	≤ 0.06	0.25 (≈ 0.148 µM)	≤ 0.06	≤ 0.06	16 (≈ 9.49 µM)	16 (≈ 9.49 µM)	4 (≈ 2.37 µM)	> 64	1 (≈ 0.593 µM)	0.125 (≈ 0.0741 µM)	≤ 0.06	0.5 (≈ 0.296 µM)	≤ 0.06	2 (≈ 1.19 µM)	2 (≈ 1.19 µM)	≤ 0.06	> 64	≤ 0.06	0.25 (≈ 0.148 µM)	0.5 (≈ 0.296 µM)	MIC [18]: ≤ 0.06 µg/mL
CNC(CC(C)C)C(=O)NC1C(=O)NC(CC(N)=O)C(=O)NC2C(=O)NC3C(=O)NC(C(=O)NC(C(=O)O)c4cc(O)cc(O)c4-c4cc3ccc4O)C(OC3CC(C)(N)C(O)C(C)O3)c3ccc(c(Cl)c3)Oc3cc2cc(c3OC2OC(CO)C(O)C(O)C2OC2CC(C)(NCc3ccc(Cc4ccccc4)cc3)C(O)C(C)O2)Oc2ccc(cc2Cl)C1O (stereo not shown) [Compound 50, 4-benzylbenzyl]	–	2 (≈ 1.13 µM)	0.25 (≈ 0.141 µM)	≤ 0.06	1 (≈ 0.564 µM)	1 (≈ 0.564 µM)	0.5 (≈ 0.282 µM)	> 64	0.5 (≈ 0.282 µM)	0.5 (≈ 0.282 µM)	–	1 (≈ 0.564 µM)	–	0.5 (≈ 0.282 µM)	0.25 (≈ 0.141 µM)	≤ 0.06	> 64	≤ 0.06	≤ 0.06	0.5 (≈ 0.282 µM)	MIC (Leuconostoc lactis): 64 µg/mL (≈ 36.1 µM); MIC [18]: ≤ 0.06 µg/mL; MIC (Pedicoccus acidilacti): 51 µg/mL (≈ 28.8 µM); MIC (Lactobacillus confusus): 64 µg/mL (≈ 36.1 µM); MIC [19]: 64 µg/mL (≈ 36.1 µM); MIC (Pediococcus pentosaceus): 64 µg/mL (≈ 36.1 µM)
CNC(CC(C)C)C(=O)NC1C(=O)NC(CC(N)=O)C(=O)NC2C(=O)NC3C(=O)NC(C(=O)NC(C(=O)O)c4cc(O)cc(O)c4-c4cc3ccc4O)C(OC3CC(C)(N)C(O)C(C)O3)c3ccc(c(Cl)c3)Oc3cc2cc(c3OC2OC(CO)C(O)C(O)C2OC2CC(C)(NCc3ccc(C(O)c4ccccc4)cc3)C(O)C(C)O2)Oc2ccc(cc2Cl)C1O (stereo not drawn) [Compound 109, 4-[alpha-hydroxybenzyl]benzyl]	0.25 (≈ 0.14 µM)	0.5 (≈ 0.28 µM)	≤ 0.06	≤ 0.06	≤ 0.06	4 (≈ 2.24 µM)	1 (≈ 0.559 µM)	–	0.25 (≈ 0.14 µM)	1 (≈ 0.559 µM)	≤ 0.06	≤ 0.06	≤ 0.06	1 (≈ 0.559 µM)	0.25 (≈ 0.14 µM)	≤ 0.06	32 (≈ 17.9 µM)	≤ 0.06	≤ 0.06	0.25 (≈ 0.14 µM)	–
